# From patent publication US20080318999A1, “Tricyclic Benzimidazoles and Their Use as Metabotropic Glutamate Receptor Modulators” (priority 2005, published 2008)
# Biological target: T1, human mGluR2 (Homo sapiens, UniProt Q14416)
# T1 construct: If the GTPgammaS assay gave them: nothing
# Test: mGluR2 allosteric activator assays described herein (FLIPR calcium mobilization in HEK 293 mGluR2/CaR cells; [35S]-GTPγS binding with CHO membranes)
# Type: cell-based
# Details: potentiator / positive allosteric modulator activity at mGluR2; the patent does not say which of the two described assays (FLIPR or GTPγS)
# From the text: The pharmacological properties of the compounds of the invention can be analyzed using standard assays for functional activity. Examples of glutamate receptor assays are well known in the art as described in, for example, Aramori et al., 1992, Neuron, 8:757; Tanabe et al., 1992, Neuron, 8:169; Miller et al., 1995, J. Neuroscience, 15:6103; Balazs, et al., 1997, J. Neurochemistry, 1997, 69:151. The methodology described in these publications is incorporated herein by reference. Conveniently, the compounds of the invention can be studied by means of an assay that measures the mobilization of intracellular calcium, [Ca^2+]i in cells expressing mGluR2.
# Fluorometric Imaging Plate Reader (FLIPR) analysis was used to detect allosteric activators of mGluR2 via calcium mobilization. […]
# FLIPR experiments were done using a laser setting of 0.8 W and a 0.4 second CCD camera shutter speed. […] An addition of test compound (0.01 μM to 30 μM in duplicate) was made after 10 seconds of baseline fluorescent readings were recorded on FLIPR. Fluorescent signals were then recorded for an additional 75 seconds at which point a second addition of DCG-IV (0.2 μM) was made and fluorescent signals were recorded for an additional 65 seconds. Fluorescent signals were measured as the peak height of the response within the sample period. […]
# T1 sequence (Q14416 19-819 limits assumed): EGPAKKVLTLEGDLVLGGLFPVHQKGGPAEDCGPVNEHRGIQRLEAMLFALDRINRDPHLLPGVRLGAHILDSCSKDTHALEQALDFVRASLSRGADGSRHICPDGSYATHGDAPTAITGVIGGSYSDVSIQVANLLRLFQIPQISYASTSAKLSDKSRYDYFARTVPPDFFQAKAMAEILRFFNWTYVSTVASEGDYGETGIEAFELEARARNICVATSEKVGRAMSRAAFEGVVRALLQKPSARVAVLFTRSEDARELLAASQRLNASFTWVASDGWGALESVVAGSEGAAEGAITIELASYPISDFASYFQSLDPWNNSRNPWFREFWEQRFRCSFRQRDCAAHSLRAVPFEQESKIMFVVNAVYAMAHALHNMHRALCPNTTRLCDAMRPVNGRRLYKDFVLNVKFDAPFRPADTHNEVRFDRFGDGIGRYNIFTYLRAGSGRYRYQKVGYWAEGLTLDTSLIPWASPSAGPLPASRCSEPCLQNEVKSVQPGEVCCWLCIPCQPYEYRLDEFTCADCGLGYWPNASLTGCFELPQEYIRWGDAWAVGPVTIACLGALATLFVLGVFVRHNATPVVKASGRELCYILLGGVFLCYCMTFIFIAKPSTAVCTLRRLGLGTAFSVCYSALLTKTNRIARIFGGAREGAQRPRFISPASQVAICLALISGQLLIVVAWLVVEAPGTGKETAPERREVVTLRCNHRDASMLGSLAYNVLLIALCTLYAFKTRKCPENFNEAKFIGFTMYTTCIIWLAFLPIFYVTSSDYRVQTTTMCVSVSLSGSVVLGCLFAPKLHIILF
smiles,measurement,value
"O=C1CCn2c(CN3CCC(c4ccc(F)cc4)CC3)nc3cc(F)cc1c32 [Example 28.1, 8-Fluoro-2-[4-(4-fluoro-phenyl)-piperidin-1-ylmethyl]-4,5,9a,9b-tetrahydroimidazo[4,5,1-ij]quinolin-6-one]",EC50,1110 nM
